Changes are numbered by the printed parent chain.
Legend:
Format in all cases: cell-based
[1] = target: T1, SUCR1 mutants (variant named in the endpoint) (Homo sapiens, UniProt Q9BXA5, I157M); test: Calcium mobilization assay, SUCR1 mutants in HEK293 stably expressing Gα16; conditions: HEK293;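 further: percent of the maximal response to succinate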
T1 construct: The full-length human SUCR1 and mutations were fused after the HA signal peptide and Flag tag; HA signal peptide (N); Flag (N); expressed in transfected cells; host or cells: HEK293 stably expressing Gα16 (pcDNA6.0, transient electroporation)
T1 sequence (Q9BXA5 1-334 I157M): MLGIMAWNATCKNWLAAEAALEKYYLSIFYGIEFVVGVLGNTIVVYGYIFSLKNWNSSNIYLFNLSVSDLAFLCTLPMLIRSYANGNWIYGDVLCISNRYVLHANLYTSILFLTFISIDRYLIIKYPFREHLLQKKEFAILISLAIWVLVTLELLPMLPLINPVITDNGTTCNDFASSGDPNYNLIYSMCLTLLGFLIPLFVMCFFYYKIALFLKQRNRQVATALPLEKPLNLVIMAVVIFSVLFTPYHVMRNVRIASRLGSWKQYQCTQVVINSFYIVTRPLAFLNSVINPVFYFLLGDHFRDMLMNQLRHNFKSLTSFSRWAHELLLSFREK
Description: (§1) The full-length human SUCR1 and mutations were fused after the HA signal peptide and Flag tag. The constructs were cloned into pcDNA6.0 vector for HEK293 system.
(§2) HEK293 cells were obtained from ATCC (Manassas, VA, USA) and cultured in DMEM supplemented with 10% (v/v) FBS, 100 mg/L penicillin, and 100 mg/L streptomycin in 5% CO2 at 37 °C. For transient transfection, ~2.5 × 10^6 cells were mixed with 2 µg plasmids in 200 µL transfection buffer, and electroporation was carried out with a Scientz-2C electroporation apparatus (Scientz Biotech, Ningbo, China). The experiments were carried out 24 h after transfection. HEK293 cell lines stably expressing Gα16 were constructed by our laboratory.
(§3) For OXGR1, plasmids were transfected into HEK293 (other receptors were transfected into HEK293 stably expressing Gα16) and seeded at a density of 4 × 10^4 per well into 96-well culture plates and incubated for 24 h at 37 °C in 5% CO2. The next day, Cells were incubated with 2 μM/L Fluo-4 AM in HBSS supplemented with 5.6 mM/L D-glucose and 250 μM/L sulfinpyrazone at 37 °C for 45 min. […] Three independent measurements were repeated, i.e., three different transfections, with three technical replicates performed for each experiment. EC50 and Emax values for each curve were calculated by Prism 8.0 software (GraphPad Software).

[2] = target: T2, SUCR1 mutants (variant named in the endpoint) (Homo sapiens, UniProt Q9BXA5, F285A/L102F); test: as above; conditions: HEK293
T2 construct: The full-length human SUCR1 and mutations were fused after the HA signal peptide and Flag tag; HA signal peptide (N); Flag (N); expressed in transfected cells; host or cells: HEK293 stably expressing Gα16 (pcDNA6.0, transient electroporation)
T2 sequence (Q9BXA5 1-334 L102F/F285A): T1 sequence (Q9BXA5 1-334 I157M) with L102F, M157I, F285A
Description: as §1, §2, §3

FFAR3 = target: T3, FFAR3 (Homo sapiens, UniProt O14843); test: Calcium mobilization assay, FFAR3 in HEK293 stably expressing Gα16; conditions: in words; related receptor
T3 construct: expressed in transfected cells; host or cells: HEK293 stably expressing Gα16
T3 sequence (O14843 1-346): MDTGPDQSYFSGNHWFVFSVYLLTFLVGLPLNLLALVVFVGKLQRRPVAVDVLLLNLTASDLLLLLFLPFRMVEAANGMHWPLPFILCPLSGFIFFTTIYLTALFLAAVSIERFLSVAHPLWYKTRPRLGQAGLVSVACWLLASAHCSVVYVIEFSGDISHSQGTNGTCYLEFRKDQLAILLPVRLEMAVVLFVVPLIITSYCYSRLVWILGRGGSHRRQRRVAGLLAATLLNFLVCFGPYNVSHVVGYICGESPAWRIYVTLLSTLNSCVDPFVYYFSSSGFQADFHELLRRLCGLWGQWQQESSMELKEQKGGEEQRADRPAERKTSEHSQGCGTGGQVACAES
Description: as §2, §3

For `O=C(O)CCC(=O)C(=O)O` [AKG, α-ketoglutarate], the Emax [1] was 0.43 ± 0.8%, the Emax [2] was 5.5 ± 1% and the “activation of FFAR3” value (FFAR3) was “no cross-reactivity”.

— PMC13372822 (The EMBO Journal, 2026)
